This is an account of results in PMC10239048, “Synthesis and antioxidant, antimicrobial, and antiviral activity of some pyrazole-based heterocycles using a 2(3H)-furanone derivative” (Journal of the Iranian Chemical Society, 2023).

Data set [1] can be described thus: Total antioxidant capacity (TAC), phosphomolybdenum method. The note with it: for Total antioxidant capacity: 500 µg/ml in methanol, 95 °C 90 min, 695 nm, means ± S.D., n = 3.
The subject of data set [2] is avian influenza HPAI-H5N1 (AIV). Also noted: species or system avian influenza virus HPAI-H5N1. To be noted: in vivo.
Data set [3] has the same test system. Also noted: species or system avian influenza virus HPAI-H5N1. The note with it: in vivo. The source holds these as a separate data set.
For data set [4], the system named is Haemophilus (Gram –ve). Nature of the data set: Agar/disk diffusion inhibition zone, Haemophilus. The data set is classed as cell-based. The note with it: diffusion method. (A growth-free zone around the sample is the usual read-out of agar diffusion tests.)
Data set [5] deals with Staphylococcus aureus. Nature of the data set: Agar/disk diffusion inhibition zone, Staphylococcus aureus. The data set is classed as cell-based. To be noted: diffusion method.
Another data set concerns Candida albicans. Kind of data set: Agar diffusion antifungal activity, Candida albicans. The data set is classed as cell-based. To be noted: diffusion method.
Data set [6] concerns Haemophilus (Gram –ve). Kind of data set: MIC measurement by serial dilution, Haemophilus. In kind it is cell-based. To be noted: read-out: MIC Haemophilus (Gram –ve).
For data set [7], the system named is Staphylococcus aureus. Nature of the data set: MIC measurement by serial dilution, Staphylococcus aureus. In kind it is cell-based. The note with it: 37 °C, 24–72 h, read-out: MIC Staph (Gram + ve).
Another data set deals with SPF chicks. Kind of data set: Immune-boosting properties in vaccinated SPF chicks (humeral response). The data set is classed as in vivo, chicken. To be noted: for Humeral response of vaccinated groups which received each tested compound separately: SPF chicks, vaccine-only group 7 log2; for Immune-boosting properties (in words): antibody titer in serum of vaccinated chicks.

Data set [8] deals with embryonated chicken SPF eggs. The note with it: in vivo.

Converted amounts (≈) assume the structure as drawn.

As for `CC(=O)NN1C(=O)C(=Cc2c(C)nn(-c3ccccc3)c2Cl)C=C1c1ccc(C)cc1` [Compound 12, N-(3-((5-Chloro-3-methyl-1-phenyl-1H-pyrazol-4-yl)methylene)-2-oxo-5-(p-tolyl)-2,3-dihydro-1H-pyrrol-1-yl)acetamide], the melting point lay within 114 to 116 °C. For the same compound, in data set [1], the “Antioxidant activity (in words)” value is recorded as “Moderate antioxidant activity” and the Total antioxidant capacity worked out at 163.0 ± 1.75 mg AAE/g dry compound.

For the compound `Cc1ccc(C2=CC(=Cc3c(C)nn(-c4ccccc4)c3Cl)C(=O)N2Cc2ccccc2)cc1`, the melting point lay within 152 to 154 °C.

`Cc1ccc(-c2cc(Cc3c(C)nn(-c4ccccc4)c3Cl)c(=O)[nH]n2)cc1` [Compound 9, 4-((5-chloro-3-methyl-1-phenyl-1H-pyrazol-4-yl)methyl)-6-(p-tolyl)pyridazin-3(2H)-one]: in data set [1], the “Antioxidant activity (in words)” value is given as “highest potent levels of activity” and the Total antioxidant capacity stood at 374.0 ± 2.08 mg AAE/g dry compound. For the same compound, the TI in data set [2] is recorded as 50. The “Antiviral activity against avian influenza virus (in words)” value (“Antiviral activity” for short) in [3] is listed as “little antiviral activity”. The “Inhibition diameter Haemophilus (Gram –ve)” value with Haemophilus (Gram –ve) [4] is 1 mm. Moreover, the “Inhibition diameter Staph (Gram + ve)” value in the data set with Staphylococcus aureus [5] is 2 mm. For the same compound, the “Candida albicans (diameter of inhibition zone)” value with Candida albicans is reported as 2 mm. Also, the MIC with Haemophilus (Gram –ve) [6] amounted to 20 µg/mL (≈ 51.2 µM). The MIC in the data set on Staphylococcus aureus [7] is 19 µg/mL. Further, in the data set with SPF chicks, the “Humeral response of vaccinated groups which received each tested compound separately” value (“Humeral response” for short) was found to be 6log2 and the “Immune-boosting properties (in words)” value is “less immune-boosting properties”. Moreover, the CC50 in [8] is recorded as 400 > µl/ egg.

For `Cc1ccc(C(=O)CC(=Cc2c(C)nn(-c3ccccc3)c2Cl)C2=NCCN2)cc1` [Compound 11, 4-(5-Chloro-3-methyl-1-phenyl-1H-pyrazol-4-yl)-3-(4,5-dihydro-1H-imidazol-2-yl)-1-(p-tolyl)but-3-en-1-one], the Total antioxidant capacity in [1] worked out at 280.0 ± 2.0 mg AAE/g dry compound. The TI in data set [2] turned out to be 83.3. In data set [3], the “Antiviral activity” value is recorded as “remarked antiviral activity” and the “Virus titer with compound” value was 10^1. Moreover, the “Inhibition diameter Haemophilus (Gram –ve)” value in the data set on Haemophilus (Gram –ve) [4] is reported as 22 mm. Further, the “Inhibition diameter Staph (Gram + ve)” value in the data set on Staphylococcus aureus [5] is on record as 25 mm. For the same compound, in the data set on Candida albicans, the “Candida albicans (diameter of inhibition zone)” value was found to be 24 mm. Moreover, the minimum inhibitory concentration (MIC) in the data set on Haemophilus (Gram –ve) [6] is 2 µg/mL (≈ 4.77 µM). Further, the MIC in the data set with Staphylococcus aureus [7] was found to be 5 µg/mL. In the data set with SPF chicks, the “Humeral response” value is 7.1 log2 and the “Immune-boosting properties (in words)” value is “special immune-boosting properties”. Besides, the CC50 in [8] is 500 > µl/ egg.

As for `Cc1ccc(C(=O)CC(=Cc2c(C)nn(-c3ccccc3)c2Cl)C(=O)NNc2ccccc2)cc1` [Compound 10, 2-((5-Chloro-3-methyl-1-phenyl-1H-pyrazol-4-yl)methylene)-4-oxo-N'-phenyl-4-(p-tolyl)butanehydrazide], in data set [1], the “Antioxidant activity (in words)” value is given as “highest potent levels of activity” and the Total antioxidant capacity was 336.0 ± 3.46 mg AAE/g dry compound. Also, the TI in data set [2] worked out at 55.5. Moreover, the “Antiviral activity” value in data set [3] is recorded as “little antiviral activity”. Also, the “Inhibition diameter Haemophilus (Gram –ve)” value in the data set with Haemophilus (Gram –ve) [4] is 6 mm. For the same compound, in the data set with Staphylococcus aureus [5], the “Inhibition diameter Staph (Gram + ve)” value is given as 7 mm. Also, the “Candida albicans (diameter of inhibition zone)” value with Candida albicans was determined as 7 mm. Also, in the data set with Haemophilus (Gram –ve) [6], the MIC was 17 µg/mL (≈ 35.1 µM). Besides, in the data set with Staphylococcus aureus [7], the MIC turned out to be 13 µg/mL. In addition, the “Humeral response” value with SPF chicks is reported as 6.9 log2. Besides, the CC50 in data set [8] is on record as 500 > µl/ egg.

Regarding `Cc1ccc(C(=O)CC(=Cc2c(C)nn(-c3ccccc3)c2Cl)C(=O)NN)cc1` [Compound 8, 2-((5-Chloro-3-methyl-1-phenyl-1H-pyrazol-4-yl)methylene)-4-oxo-4-(p-tolyl)butanehydrazide], in data set [1], the “Antioxidant activity (in words)” value is on record as “Moderate antioxidant activity” and the Total antioxidant capacity is 145.0 ± 1.73 mg AAE/g dry compound. The compound further showed a TI in [2] of 55.5. For the same compound, the “Antiviral activity” value in [3] is “little antiviral activity”. Besides, the “Inhibition diameter Haemophilus (Gram –ve)” value in the data set on Haemophilus (Gram –ve) [4] stood at 4 mm. For the same compound, the “Inhibition diameter Staph (Gram + ve)” value in the data set with Staphylococcus aureus [5] is on record as 8 mm. Also, the “Candida albicans (diameter of inhibition zone)” value with Candida albicans came out at 8 mm. In addition, the minimum inhibitory concentration (MIC) in the data set on Haemophilus (Gram –ve) [6] amounted to 12 µg/mL (≈ 29.3 µM). The minimum inhibitory concentration (MIC) with Staphylococcus aureus [7] amounted to 13 µg/mL. The “Humeral response” value in the data set on SPF chicks was found to be 6.6 log2. For the same compound, in data set [8], the CC50 is 500 > µl/ egg.

Consider `Cc1ccc(C2=CC(=Cc3c(C)nn(-c4ccccc4)c3Cl)C(=O)N2N=Cc2ccc(Cl)cc2)cc1` [Compound 15, 3-((5-Chloro-3-methyl-1-phenyl-1H-pyrazol-4-yl)methylene)-1-((4-chlorobenzylidene)-amino)-5-(p-tolyl)-1,3-dihydro-2H-pyrrol-2-one], for which the Total antioxidant capacity in data set [1] stood at 262.27 ± 2.51 mg AAE/g dry compound. Also, in data set [2], the TI was found to be 55.5. In [3], the “Antiviral activity” value was “little antiviral activity” and the “Virus titer with compound” value is recorded as 10^5. Moreover, in the data set with Haemophilus (Gram –ve) [4], the “Inhibition diameter Haemophilus (Gram –ve)” value stood at 7 mm. For the same compound, the “Inhibition diameter Staph (Gram + ve)” value in the data set on Staphylococcus aureus [5] was found to be 6 mm. In addition, in the data set with Candida albicans, the “Candida albicans (diameter of inhibition zone)” value turned out to be 6 mm. Moreover, in the data set with Haemophilus (Gram –ve) [6], the minimal inhibitory concentration (MIC) was 16 µg/mL (≈ 31.2 µM). Also, the minimum inhibitory concentration (MIC) in the data set on Staphylococcus aureus [7] was 18 µg/mL. Also, the “Humeral response” value in the data set with SPF chicks is given as 6.6 log2. In data set [8], the CC50 is 500 > µl/ egg.

Usually melting point stands for the temperature of the solid-liquid transition. The term MIC denotes the lowest concentration that inhibits growth of the organism.
